Measurements from paper PMC8148004, “Distinction between 2′- and 3′-Phosphate Isomers of a Fluorescent NADPH Analogue Led to Strong Inhibition of Cancer Cells Migration” (Antioxidants, 2021).

Columns and labels:
[1] = biological target: T1, NOX2 C-terminal (gp91phox) (Homo sapiens, UniProt P04839); test: fluorescence enhancement titration of the ligand with recombinant protein; also decreased NADPH consumption; format: binding
T1 construct: gene CYBB; C-terminal (cytosolic part), residues 300–580, His-tagged, E. coli
T1 sequence (P04839 300-570): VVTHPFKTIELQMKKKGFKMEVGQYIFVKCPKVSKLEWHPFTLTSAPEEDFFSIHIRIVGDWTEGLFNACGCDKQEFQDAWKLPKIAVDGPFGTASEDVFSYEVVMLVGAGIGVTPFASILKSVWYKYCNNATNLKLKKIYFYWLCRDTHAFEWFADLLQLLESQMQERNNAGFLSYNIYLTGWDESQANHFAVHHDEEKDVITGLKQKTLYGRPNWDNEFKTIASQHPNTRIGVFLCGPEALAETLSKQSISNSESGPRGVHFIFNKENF

[2] = biological target: T2, eNOS (Bos taurus, UniProt P29473); test: oxyhemoglobin assay for NO formation; format: biochemical
T2 construct: gene NOS3; full length recombinant bovine eNOS, E. coli BL21 (DE3); with calmodulin
T2 sequence (P29473 2-1205): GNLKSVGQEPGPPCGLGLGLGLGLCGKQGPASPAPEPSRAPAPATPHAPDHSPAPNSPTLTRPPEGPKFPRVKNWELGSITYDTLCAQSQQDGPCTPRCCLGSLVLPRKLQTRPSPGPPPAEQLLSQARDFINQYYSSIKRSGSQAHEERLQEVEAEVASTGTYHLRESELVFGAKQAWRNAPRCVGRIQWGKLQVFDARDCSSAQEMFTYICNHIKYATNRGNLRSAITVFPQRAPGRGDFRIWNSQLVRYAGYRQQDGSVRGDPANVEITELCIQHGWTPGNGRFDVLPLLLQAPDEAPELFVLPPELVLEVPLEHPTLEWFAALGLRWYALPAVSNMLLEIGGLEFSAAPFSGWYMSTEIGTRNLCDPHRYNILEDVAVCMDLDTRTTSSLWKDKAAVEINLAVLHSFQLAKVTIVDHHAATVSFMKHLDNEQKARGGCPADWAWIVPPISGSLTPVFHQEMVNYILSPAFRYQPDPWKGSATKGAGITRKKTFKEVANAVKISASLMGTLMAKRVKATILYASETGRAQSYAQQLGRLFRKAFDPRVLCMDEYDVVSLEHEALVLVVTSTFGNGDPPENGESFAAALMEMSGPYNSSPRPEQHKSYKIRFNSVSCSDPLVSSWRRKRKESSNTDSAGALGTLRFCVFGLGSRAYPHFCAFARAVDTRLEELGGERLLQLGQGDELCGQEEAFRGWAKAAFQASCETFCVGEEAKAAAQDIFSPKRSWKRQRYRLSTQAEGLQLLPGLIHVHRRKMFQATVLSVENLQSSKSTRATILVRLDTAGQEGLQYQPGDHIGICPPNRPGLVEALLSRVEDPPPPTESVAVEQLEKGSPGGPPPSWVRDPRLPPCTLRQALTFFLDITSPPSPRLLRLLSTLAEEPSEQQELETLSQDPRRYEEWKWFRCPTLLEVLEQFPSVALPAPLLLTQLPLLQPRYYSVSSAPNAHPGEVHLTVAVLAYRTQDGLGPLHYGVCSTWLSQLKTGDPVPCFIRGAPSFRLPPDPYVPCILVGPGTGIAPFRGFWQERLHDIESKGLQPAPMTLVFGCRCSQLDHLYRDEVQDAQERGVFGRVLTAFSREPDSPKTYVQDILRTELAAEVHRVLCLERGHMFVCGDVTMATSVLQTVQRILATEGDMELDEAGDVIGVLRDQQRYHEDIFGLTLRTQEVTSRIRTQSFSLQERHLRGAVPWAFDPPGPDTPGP

[3] = biological target: T1, NOX2 C-terminal (gp91phox); test: fluorescence enhancement titration of the ligand with recombinant protein; format: binding

Kd [1] [µM]	IC50 [2] [µM]	Kd [3] [µM]	SMILES
0.67 ± 0.11	~30		CCN(CCNC(=O)[C@H]1O[C@@H](n2cnc3c(N)ncnc32)[C@H](OP(=O)(O)O)[C@@H]1O)c1ccc(/C=C/c2ccc([N+](=O)[O-])cc2)cc1 [NS1-2]
		1.14 ± 0.09	CCN(CCNC(=O)[C@H]1O[C@@H](n2cnc3c(N)ncnc32)[C@H](O)[C@@H]1OP(=O)(O)O)c1ccc(/C=C/c2ccc([N+](=O)[O-])cc2)cc1 [NS1-3]
